Among the test systems are HT29 colon; 786-0 renal; SF-268 CNS; MDA-N; SF-539 CNS; HOP-62 NSCLC; IGROV1 ovarian; PC-3 prostate; SK-OV-3 ovarian; KM12 colon; SR leukemia.
Holding throughout (test): NCI anticancer screen, dose series, 48 h

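Following 48 hours of exposure in 96-well plates, responses at five concentrations were used to interpolate endpoints linearly. GI50 marks 50% less growth. TGI marks complete inhibition of growth.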

Consider `CCOC(=O)c1nc2cc(C(F)(F)F)ccc2nc1Nc1ccc(F)cc1`, for which the TGI with HT29 colon is more than 100 µM; in the assay with 786-0 renal, more than 100 µM; in the assay on SF-268 CNS, more than 100 µM; with MDA-N, more than 100 µM; with SF-539 CNS, 55.9 µM; in the assay with HOP-62 NSCLC, more than 100 µM. The TGI with IGROV1 ovarian, in the assay on PC-3 prostate, in the assay on SK-OV-3 ovarian and in the assay with KM12 colon was more than 100 µM throughout.

`Nc1nn(CC(O)CO)c(=O)s1` (stereo not drawn): the TGI with HT29 colon, in the assay on SF-268 CNS, in the assay with SF-539 CNS, in the assay on HOP-62 NSCLC, with IGROV1 ovarian and with SK-OV-3 ovarian was more than 100 µM throughout. This molecule yielded a TGI with SR leukemia of more than 100 µM.

Turning to `C=CCCC(On1c(-c2ccc(Cl)cc2)csc1=S)c1ccccc1` (stereo not drawn), the TGI in the assay with HT29 colon is more than 100 µM; with 786-0 renal, more than 100 µM; in the assay with SF-268 CNS it was more than 100 µM; in the assay with MDA-N it was 13.4 µM; with SF-539 CNS, more than 100 µM; in the assay on HOP-62 NSCLC it was more than 100 µM. The TGI with IGROV1 ovarian, in the assay with PC-3 prostate and in the assay on KM12 colon was more than 100 µM throughout.

Regarding `CC1(C)OCC(COC(=O)NCn2cc(-c3ccccc3)nn2)O1` (stereo not drawn), the TGI in the assay with HT29 colon, with 786-0 renal, in the assay with SF-268 CNS, in the assay on SF-539 CNS, with HOP-62 NSCLC and with IGROV1 ovarian was more than 100 µM in each case. Further, the TGI in the assay with PC-3 prostate, with KM12 colon and with SR leukemia was more than 100 µM throughout.

With `COc1ccc(/C=N\NC(=O)Nc2cccc3ccccc23)cc1`, the TGI is more than 100 µM with HT29 colon; 46.6 µM with 786-0 renal; more than 100 µM in the assay with SF-268 CNS; more than 100 µM in the assay on MDA-N; 33.3 µM in the assay with SF-539 CNS; 26.5 µM with HOP-62 NSCLC. Also, the TGI in the assay on IGROV1 ovarian, in the assay on PC-3 prostate and in the assay on KM12 colon was more than 100 µM each time.

`C=CC[N+](CCO)(CCO)CCCCCCCCCCCCCCCCCC`: the TGI is 12 µM in the assay with HT29 colon; 13.3 µM in the assay with SF-268 CNS; 13.1 µM with SF-539 CNS; 27.3 µM with HOP-62 NSCLC; 3.78 µM in the assay with IGROV1 ovarian; 27.9 µM in the assay with SK-OV-3 ovarian. The molecule further displayed a TGI in the assay with KM12 colon of 3.58 µM.

Consider `N#Cc1ccc(Nc2cnc3ccc(N)cc3n2)cc1`, for which the TGI with HT29 colon, in the assay with 786-0 renal, with SF-268 CNS, in the assay on SF-539 CNS, in the assay with HOP-62 NSCLC and in the assay with SK-OV-3 ovarian was more than 100 µM in each case. In addition, the TGI in the assay with KM12 colon and with SR leukemia was more than 100 µM in each case.

As for `CNC(=O)c1ccccc1[S+]1c2cccc3cccc(c23)C(=O)N1C` (stereo not drawn), the TGI in the assay with HT29 colon, in the assay on 786-0 renal, in the assay with SF-268 CNS, in the assay on MDA-N, in the assay on SF-539 CNS and with HOP-62 NSCLC was more than 100 µM each time. Moreover, the TGI in the assay on IGROV1 ovarian, with PC-3 prostate and in the assay with KM12 colon was more than 100 µM throughout.

`C[C@H](N)C(=O)N[C@@H]1[C@H]2C(=C(O)C[C@@H](O)[C@@H]2O)C(=O)O[C@@H]1C`: the TGI in the assay on HT29 colon, with SF-268 CNS, in the assay on SF-539 CNS, with HOP-62 NSCLC, in the assay on IGROV1 ovarian and in the assay on SK-OV-3 ovarian was more than 100 µM in each case. The TGI in the assay on KM12 colon was more than 100 µM.

In the case of `Cc1cc(C)c2c(=N)c3ccccc3n(CCCCCCn3c4ccccc4c(=N)c4c(C)cc(C)nc43)c2n1`, the TGI came out at 1.68 µM in the assay with HT29 colon; 0.816 µM with 786-0 renal; 3.01 µM in the assay with SF-539 CNS; 1.44 µM in the assay with HOP-62 NSCLC; 2.64 µM in the assay with IGROV1 ovarian; 2.81 µM in the assay with PC-3 prostate. The TGI with SK-OV-3 ovarian was found to be 2.98 µM; with KM12 colon, 0.973 µM.

Take `CCOC(=O)C1=CC(C)(C(=O)OCC)Nc2c(nc(SC)n(C)c2=O)N1` (stereo not drawn): the TGI in the assay on HT29 colon, with 786-0 renal, in the assay with SF-268 CNS, in the assay with MDA-N, with SF-539 CNS and with HOP-62 NSCLC was more than 10 µM each time. Further, the TGI in the assay on IGROV1 ovarian, with PC-3 prostate, in the assay on SK-OV-3 ovarian and with KM12 colon was more than 10 µM throughout.

Take `O=C1C2=C(CCCCC2)C2CCCCC12O` (stereo not drawn): the TGI in the assay with HT29 colon, with 786-0 renal, with SF-268 CNS, in the assay with SF-539 CNS, in the assay on HOP-62 NSCLC and in the assay with IGROV1 ovarian was more than 100 µM each time. Further, the TGI in the assay with SK-OV-3 ovarian, in the assay on KM12 colon and in the assay on SR leukemia was more than 100 µM in each case.

Regarding `COc1cc(/C=c2/c3ccccc3n3c2cc(-c2ccccc2)[n+]3C)cc(OC)c1OC`, the TGI with HT29 colon turned out to be 11.4 µM; in the assay on 786-0 renal, 16.4 µM; with SF-268 CNS, 22.9 µM; with MDA-N, 34.6 µM; in the assay on SF-539 CNS, 8.64 µM; in the assay with HOP-62 NSCLC, 19.5 µM. Also, the TGI is 23 µM with IGROV1 ovarian, 14.6 µM in the assay on PC-3 prostate, 23.2 µM with SK-OV-3 ovarian and 3.67 µM with KM12 colon.

`Cn1cc(-c2nc(-c3c[nH]c4ccncc34)cs2)c2cc(F)ccc21`: the GI50 was 1.44 µM in the assay with HT29 colon; 1.74 µM in the assay on SF-268 CNS; 1.68 µM with SF-539 CNS; 1.73 µM in the assay with HOP-62 NSCLC; 1.86 µM with IGROV1 ovarian; 1.63 µM in the assay on PC-3 prostate. Further, the figures for the GI50 in the assay on SK-OV-3 ovarian and with KM12 colon were 1.92 µM and 1.63 µM, respectively. Further, the TGI in the assay on HT29 colon came out at 2.93 µM; in the assay on SF-268 CNS, 3.44 µM; with SF-539 CNS, 3.1 µM; with HOP-62 NSCLC, 3.3 µM; in the assay on IGROV1 ovarian, 3.41 µM; in the assay on PC-3 prostate it was 3.17 µM. The TGI with SK-OV-3 ovarian came out at 3.37 µM; with KM12 colon, 3.11 µM.

The record behind these values is PubChem BioAssay (NCI).
